This is an account of results in ChEMBL document CHEMBL5126669, “Discovery of 5,7-Dihydro-6H-pyrrolo[2,3-d]pyrimidin-6-ones as Highly Selective CDK2 Inhibitors” (ACS Med Chem Lett, 2022).

What is called IC50 is the concentration needed to halve the response being measured.

Series [1] addresses Cyclin-dependent kinase 2/cyclin E1 (Homo sapiens, UniProt P24941). Kind of series: Inhibition of recombinant human N-terminal GST-tagged full-length CDK2/Flag-tagged cyclinE1 expressed in baculovirus expression system using eIF4E-binding protein-1 peptide as substrate incubated for 1 hr in presence of ATP by HTRF assay. (In general: In TR-FRET formats the signal depends on donor and acceptor labels being close together.)

Series [2] in a line: Inhibition of CDK1/cyclin B (unknown origin) in presence of ATP. More on the design: species or system Homo sapiens.
The target in series [3] is Cyclin-dependent kinase 1 (Homo sapiens, UniProt P06493). Description: Inhibition of CDK1 in human OVCAR3 cells incubated for 30 mins in presence of pNPM T199 by western blot analysis. The class given is cell-based, OVCAR-3. A general note: Immunoblotting shows a protein as a band on a membrane.
The species entered for series [4] is Homo sapiens. Kind of series: Selectivity ratio of IC50 for inhibition of CDK1/cyclin B (unknown origin) to IC50 for inhibition recombinant human N-terminal GST-tagged full-length CDK2/Flag-tagged cyclinE1 expressed in baculovirus expression system.
Series [5] is filed under the species Homo sapiens. Kind of series: Selectivity ratio of IC50 for inhibition of CDK4/cyclin D1 (unknown origin) to IC50 for inhibition recombinant human N-terminal GST-tagged full-length CDK2/Flag-tagged cyclinE1 expressed in baculovirus expression system.
The species entered for series [6] is Homo sapiens. Kind of series: Selectivity ratio of IC50 for inhibition of CDK6/cyclin D1 (unknown origin) to IC50 for inhibition recombinant human N-terminal GST-tagged full-length CDK2/Flag-tagged cyclinE1 expressed in baculovirus expression system.
Series [7] concerns the target Cyclin-dependent kinase 2 (Homo sapiens, UniProt P24941). Description: Inhibition of CDK2 in human COV318 cells incubated for overnight in presence of human whole blood by HTRF assay. Format: cell-based.
Series [8] is described as follows: Intrinsic clearance in human liver microsomes at 1 uM measured upto 30 mins by LC/MS analysis. The class given is ADME, Microsome. The following applies: read-out: CLH (converted). In general terms: Liver microsomes are vesicles of endoplasmic reticulum, rich in cytochrome P450 enzymes.
For series [9], the species on record is Homo sapiens. Kind of series: Selectivity ratio of IC50 for inhibition of CDK1 in human OVCAR3 cells to IC50 for inhibition of CDK2 in human COV318 cells. Format: cell-based.
The species named for series [10] is Homo sapiens. Kind of series: Selectivity ratio of IC50 for inhibition of CDK4 (unknown origin) to IC50 for inhibition recombinant human N-terminal GST-tagged full-length CDK2/Flag-tagged cyclinE1 expressed in baculovirus expression system. The following applies: tested as the 2H-labelled form.
The species entered for series [11] is Homo sapiens. Kind of series: Selectivity ratio of IC50 for inhibition of CDK1 (unknown origin) to IC50 for inhibition recombinant human N-terminal GST-tagged full-length CDK2/Flag-tagged cyclinE1 expressed in baculovirus expression system. The following applies: tested as the 2H-labelled form.
For series [12], the species on record is Homo sapiens. Description: Selectivity ratio of IC50 for inhibition of CDK7 (unknown origin) to IC50 for inhibition recombinant human N-terminal GST-tagged full-length CDK2/Flag-tagged cyclinE1 expressed in baculovirus expression system. Conditions: tested as the 2H-labelled form.
The species entered for series [13] is Homo sapiens. Kind of series: Selectivity ratio of IC50 for inhibition of CDK9 (unknown origin) to IC50 for inhibition recombinant human N-terminal GST-tagged full-length CDK2/Flag-tagged cyclinE1 expressed in baculovirus expression system. Conditions: tested as the 2H-labelled form.
The species named for series [14] is Homo sapiens. Kind of series: Selectivity ratio of IC50 for inhibition of CDK6 (unknown origin) to IC50 for inhibition recombinant human N-terminal GST-tagged full-length CDK2/Flag-tagged cyclinE1 expressed in baculovirus expression system. Conditions: tested as the 2H-labelled form.

Structures are written as SMILES.

Cyclin-dependent kinase 1, sequence (P06493 whole entry): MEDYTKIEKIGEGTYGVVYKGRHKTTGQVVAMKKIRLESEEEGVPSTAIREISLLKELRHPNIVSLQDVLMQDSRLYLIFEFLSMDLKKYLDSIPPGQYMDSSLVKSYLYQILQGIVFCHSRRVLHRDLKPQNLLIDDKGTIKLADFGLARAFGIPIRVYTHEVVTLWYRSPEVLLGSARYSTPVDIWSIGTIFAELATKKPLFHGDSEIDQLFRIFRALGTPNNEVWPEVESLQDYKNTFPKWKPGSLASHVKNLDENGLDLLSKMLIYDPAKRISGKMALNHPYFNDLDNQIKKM

As for `CC1(C)C(=O)N(C2CCCC2)c2nc(NC3CCN(S(C)(=O)=O)CC3)ncc21`, the half-maximal inhibitory concentration (IC50) in series [1] was 0.087 µM; in [2] it was > 5 µM.
Regarding `CS(=O)(=O)N1CCC(Nc2ncc3c(n2)N(C2CCCC2)C(=O)C32CC2)CC1`, the IC50 in series [1] is 0.102 µM; in [2], > 5 µM; in series [3], > 5 µM.
With `C[C@@H]1CCC[C@H]1N1C(=O)C2(CC2)c2cnc(Nc3ccc(S(=O)(=O)NCCO)cc3)nc21` (relative stereo), the half-inhibitory concentration (IC50) stood at 0.0018 µM in series [1] and 0.77 µM in series [7]. Further, the Ratio IC50 in the series listed under Homo sapiens [4] is 250; in the series listed under Homo sapiens [5], 29; in the series filed under Homo sapiens [6], 28. Moreover, the predicted hepatic clearance at 1 µM in [8] is > 1.1 L/h/kg.
On to `CC[C@@H](C(F)F)N1C(=O)C2(CC2)c2cnc(NC3CCN(S(C)(=O)=O)CC3)nc21`, for which the IC50 in series [1] is 0.023 µM; in [2] it was 1.69 µM. Also, the Ratio IC50 in the series listed under Homo sapiens [9] was determined as 74.
For the compound `CS(=O)(=O)N1CCC(Nc2ncc3c(n2)N(C2CCOCC2)C(=O)C32CC2)CC1`, the IC50 in series [1] turned out to be 2.2 µM.
Take `CN1Cc2cnc(Nc3ccc(S(N)(=O)=O)cc3)nc2C(C)(C)C1=O`: the results for the IC50 in [1] and in series [2] were 0.161 µM and > 5 µM, respectively.
As for `CNS(=O)(=O)c1ccc(Nc2ncc3c(n2)N(c2cc(F)ccc2Cl)C(=O)C32CC2)cc1`, the IC50 came to 0.00062 µM in series [1] and 0.46 µM in series [7]. For the same compound, the Ratio IC50 was determined as 1900 in the series filed under Homo sapiens [4], 58 in the series filed under Homo sapiens [5] and 120 in the series filed under Homo sapiens [6]. Besides, the predicted hepatic clearance at 1 µM in [8] was 0.9 L/h/kg.
With `CC1(C)Cc2cnc(Nc3ccc(S(N)(=O)=O)cc3)nc2N(C2CCCC2)C1=O`, the results for the IC50 in series [1] and in series [2] were 0.005 µM and 0.17 µM, respectively.
`Cc1nn(C)cc1-c1ccnc(Nc2ccc(S(=O)(=O)N3CCOCC3)cc2)n1`: the IC50 in series [1] was 0.431 µM.
On to `CS(=O)(=O)N1CCC(Nc2ncc3c(n2)N(c2ccccc2)C(=O)C32CC2)CC1`, for which the IC50 in series [1] stood at 1.61 µM.
Take `Cc1nn2cnc3[nH]ccc3c2c1C1CCCCC1`: the half-inhibitory concentration (IC50) in series [1] amounted to 2.8 µM.
`C[C@H]1CCC[C@@H]1N1C(=O)C2(CC2)c2cnc(NC3CCN(S(C)(=O)=O)CC3)nc21` (mixture of isomers): the values for the IC50 in [1] and in series [2] were 0.007 µM and 0.54 µM, respectively. Moreover, the Ratio IC50 in the series listed under Homo sapiens [9] is 77.
Consider `CS(=O)(=O)N1CCC(Nc2ncc3c(n2)N(CC(F)F)C(=O)C32CC2)CC1`, for which the 50% inhibitory concentration (IC50) in [1] stood at 0.875 µM.
Consider `Cn1cc(S(=O)(=O)N2CCC(Nc3ncc4c(n3)N(C3CCCC3)C(=O)C43CC3)CC2)cn1`, for which the IC50 stood at 0.017 µM in series [1] and 1.28 µM in [2]. For the same compound, the Ratio IC50 in the series filed under Homo sapiens [9] came out at 75.
With `CS(=O)(=O)N1CCC(Nc2ncc3c(n2)N(C2CCCCC2)C(=O)C32CC2)CC1`, the concentration for half-maximal inhibition (IC50) in series [1] was 0.082 µM; in series [2], > 5 µM.
Turning to `CNS(=O)(=O)c1ccc(Nc2ncc3c(n2)N([C@H]2CCC[C@@H]2C)C(=O)C32CC2)cc1` (relative stereo), the results for the half-maximal inhibitory concentration (IC50) in series [1] and in series [7] were 0.00033 µM and 0.23 µM, respectively. In addition, the Ratio IC50 stood at 890 in the series filed under Homo sapiens [4], 33 in the series filed under Homo sapiens [5] and 48 in the series filed under Homo sapiens [6]. Further, the predicted hepatic clearance at 1 µM in series [8] was 1.1 L/h/kg.
Consider `CNS(=O)(=O)c1ccc(Nc2ncc3c(n2)N([C@@H](C)C2CC2)C(=O)C32CC2)cc1`, for which the IC50 came to 0.0016 µM in series [1] and 0.46 µM in [7]. Further, the Ratio IC50 in the series listed under Homo sapiens [4] turned out to be 480; in the series filed under Homo sapiens [5], 29; in the series listed under Homo sapiens [6] it was 24. For the same compound, in [8], the predicted hepatic clearance at 1 µM is 0.7 L/h/kg.
Regarding `CNS(=O)(=O)c1ccc(Nc2ncc3c(n2)N([C@@H]2CCC[C@@H](O)C2)C(=O)C32CC2)cc1`, the half-maximal inhibitory concentration (IC50) in series [1] was determined as 0.00025 µM; in [7] it was 0.67 µM. Also, the Ratio IC50 was found to be 1200 in the series filed under Homo sapiens [4]; 1000 in the series listed under Homo sapiens [5]; 230 in the series listed under Homo sapiens [6]; 770 in the series listed under Homo sapiens [10]; 1200 in the series listed under Homo sapiens [11]; 17000 in the series filed under Homo sapiens [12]. Besides, the results for the Ratio IC50 in the series listed under Homo sapiens [13] and in the series listed under Homo sapiens [14] were 8200 and 230, respectively. Further, the predicted hepatic clearance at 1 µM in [8] is 0.8 L/h/kg.
For the compound `CCC1(C)C(=O)N(C2CCCC2)c2nc(NC3CCN(S(C)(=O)=O)CC3)ncc21` (stereo not given), the IC50 in [1] is 0.557 µM; in series [2], > 5 µM.
Take `C[C@@H]1CCC[C@H]1N1C(=O)C2(CC2)c2cnc(Nc3ccc(S(=O)(=O)N[C@@H]4CCCN(C)C4)cc3)nc21`: the IC50 in [1] is 0.00032 µM; in [7] it was 0.044 µM. For the same compound, the Ratio IC50 in the series listed under Homo sapiens [4] was 100; in the series filed under Homo sapiens [5], 8; in the series filed under Homo sapiens [6], 9. The predicted hepatic clearance at 1 µM in [8] was > 1.1 L/h/kg.
For the compound `CS(=O)(=O)N1CCC(Nc2ncc3c(n2)N(C2CCCC2)C(=O)C32CCC2)CC1`, the IC50 in series [1] is 0.236 µM; in series [2] it was > 5 µM.
